Measured values: PMC8480782, “Efficient Dimerization Disruption of Leishmania infantum Trypanothione Reductase by Triazole-phenyl-thiazoles” (Journal of Medicinal Chemistry, 2021)

Target: T1, LiTryR (Leishmania infantum, UniProt A4HSF7)
T1 construct: HIS (N); made in house; host or cells: E. coli BL21 (DE3) Rossetta
Experiment: Residual activity of LiTryR after incubation with inhibitor and 2500-fold dilution
Assay type: biochemical
Conditions: LiTryR 400 nM, 25 μM inhibitor 16 h
Protocol: Adjustment to eq 1 (see equations in Experimental Section) of the progress curves of the reactions catalyzed by LiTryR allowed us to obtain the kobs values for six 19a concentrations (4.4, 5.9, 7.9, 10.5, 14.1, and 18.7 μM) at six different TS2 concentrations (3.1, 6.2, 12.5, 25, 50, and 100 μM) (Figures S2–S7 and Table S2). The different kobs values obtained at each substrate concentration can be used to determine the apparent inhibitory constants Ki^app and Ki*^app defined as the dissociation constant for the initial EI complex and the constant for the overall dissociation from E*I to E + I, respectively (eq 2).[42a],[42b] Based on the relationship among kobs, vi, and vs (k6 = kobs × vi/vs) at all of the trypanothione disulfide (TS2) and 19a concentrations assayed, k6 varies between 3.9 × 10^–6 and 6.5 × 10^–5 s^–1. […] Fixing this value for k6 rendered very good estimations of Ki^app and Ki*^app after the fitting process for all of the substrate concentrations assayed (Figure 3 and Table 2).
Scheme S4. Reversible sing le-step mechanism of t im e- dependent inhibition of Li TryR by […]
& A slow and reversible equilibrium between enzyme and inhibitor is governed by association and dissociation rate constants (k3 and k4, res pec tively).
Figure S13. Residual activity of Li TryR after incubation with 19a. […] Samples were diluted (2500-fold) and residual activity was evaluated. […]

T1 sequence (A4HSF7 1-491): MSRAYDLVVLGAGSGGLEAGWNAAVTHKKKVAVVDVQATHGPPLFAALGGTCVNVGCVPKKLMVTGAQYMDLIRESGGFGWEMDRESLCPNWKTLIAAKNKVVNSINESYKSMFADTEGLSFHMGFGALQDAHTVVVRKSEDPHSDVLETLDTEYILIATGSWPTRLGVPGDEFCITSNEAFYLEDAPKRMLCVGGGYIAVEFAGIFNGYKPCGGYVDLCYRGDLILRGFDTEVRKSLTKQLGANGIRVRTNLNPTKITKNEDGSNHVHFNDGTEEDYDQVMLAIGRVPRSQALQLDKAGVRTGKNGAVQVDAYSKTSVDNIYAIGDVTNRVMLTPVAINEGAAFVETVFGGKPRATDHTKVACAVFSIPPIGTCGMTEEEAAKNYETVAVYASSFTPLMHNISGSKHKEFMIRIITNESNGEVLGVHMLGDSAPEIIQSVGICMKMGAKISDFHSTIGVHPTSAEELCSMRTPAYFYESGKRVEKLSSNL

NCCCCc1cn(-c2ccc(-c3nc(-c4ccccc4)c(-c4ccccc4)s3)c(OCCN3CCNC3=O)c2)nn1.O=C(O)C(F)(F)F [19a, 1-(2-(5-(4-(4-Ammoniobutyl)-1H-1,2,3-triazol-1-yl)-2-(4,5-diphenylthiazol-2-yl)phenoxy)ethyl)imidazolidin-2-one 2,2,2-Trifluoroacetate]
recovery of enzymatic activity after inactivation: extremely slow process of recovery of the enzymatic activity
